# Publication PMC3988658 (Pathogens and disease, 2014)
# Starred links: 1 amine or outer side, 2 acyl side, 3 side chain; linkers in the order of their positions; H or OH if unused. Positions of bridges follow the written chain, without caps; N, C: chain ends. Non-standard residues stand in square brackets, D forms with d. Residues, ends and D or L forms follow the SMILES beside them. *: point of attachment. Ileψ(thiazoline)Cys = CC[C@H](C)[C@H](N)C1=N[C@H](C(=O)*)CS1; X2 = CCC(=O)CC(O)C[C@@H](C)C[C@H](N[*:1])C(=O)[*:2]; Alaψ(CH2NMeCH2CH2OH) = C[C@@H](CN(C)CCO)N*; dOrn = NCCC[C@@H](N)C(=O)O; X1 = CCCCCCCCC(C)C(=O)*; Aib = CC(C)(N)C(=O)O
# Experiments:
# [1] = test system: C. albicans tet-NRG1 strain filamentation; format: cell-based, Candida albicans; settings: YPD plus DOX, dose response
# [2] = test system: C. albicans wild-type strain SC5314 biofilm formation; assay: microbe, parasite or virus in culture; format: cell-based, Candida albicans; settings: for Inhibition of biofilm formation: NCI Natural set, dose response; for IC50: SC5314, 24 h
# in vitro = settings: human
# C. albicans = settings: cited from earlier work
# [3] = test system: Human hepatocellular carcinoma (HepG2) cells
molecule,measurement,setting,value
"CC(=O)O[C@@H]1C[C@H]2O[C@@H]3C=C(C)CC[C@]3(C)[C@]1(C)[C@]21CO1 [Compound 1, Trichoderonin]",Inhibition of filamentation,[1],inhibited filamentation in a dose-response manner
"COc1ccc(C[C@H]2NC[C@H](O)[C@H]2OC(C)=O)cc1 [Compound 2, Anisomycin]",Inhibition of biofilm formation,[2],inhibited biofilm formation only
"CC[C@H](C)[C@H](N)C1=N[C@H](C(=O)N[C@@H](CC(C)C)C(=O)N[C@H](CCC(=O)O)C(=O)N[C@H](C(=O)N[C@H]2CCCCNC(=O)[C@H](CC(N)=O)NC(=O)[C@@H](CC(=O)O)NC(=O)[C@H](Cc3cnc[nH]3)NC(=O)[C@@H](Cc3ccccc3)NC(=O)[C@H]([C@@H](C)CC)NC(=O)[C@@H](CCCN)NC2=O)[C@@H](C)CC)CS1 [Compound 4, Bacitracin] ({Ileψ(thiazoline)Cys}-L[dE]IK[dOrn]I[dF]H[dD]N; lactam 4-C (inferred))",CC50 at 24 hr,in vitro,> 100 µM
"CC[C@H](C)[C@H](N)C1=N[C@H](C(=O)N[C@@H](CC(C)C)C(=O)N[C@H](CCC(=O)O)C(=O)N[C@H](C(=O)N[C@H]2CCCCNC(=O)[C@H](CC(N)=O)NC(=O)[C@@H](CC(=O)O)NC(=O)[C@H](Cc3c[nH]cn3)NC(=O)[C@@H](Cc3ccccc3)NC(=O)[C@H]([C@@H](C)CC)NC(=O)[C@@H](CCCN)NC2=O)[C@@H](C)CC)CS1 [Compound 4, Bacitracin] ({Ileψ(thiazoline)Cys}-L[dE]IK[dOrn]I[dF]H[dD]N; lactam 4-C; N-terminus assumed)",Inhibition of biofilm formation,[2],inhibited biofilm formation only
same,IC50,[2],2.13 µM
"CO[C@H]1C[C@@H]2CC[C@@H](C)[C@@](O)(O2)C(=O)C(=O)N2CCCC[C@H]2C(=O)O[C@H]([C@H](C)C[C@@H]2CC[C@@H](O)[C@H](OC)C2)CC(=O)[C@H](C)/C=C(\C)[C@@H](O)[C@@H](OC)C(=O)[C@H](C)C[C@H](C)/C=C/C=C/C=C/1C [Compound 5, Rapamune (rapamycin, sirolimus)]",IC50,[2]; Candida albicans,0.514 µM
same,Inhibition of filamentation,[1],inhibited filamentation in a dose-response manner
same,Effect on the morphogenic transition,"C. albicans; most liquid hypha-inducing media, ref Bastidas, Heitman & Cardenas, 2009",no effect on the morphogenic transition
"CC(C)[C@@H]1NC(=O)[C@H](C)OC(=O)[C@@H](C(C)C)NC(=O)[C@@H](C(C)C)OC(=O)[C@H](C(C)C)NC(=O)[C@H](C)OC(=O)[C@@H](C(C)C)NC(=O)[C@@H](C(C)C)OC(=O)[C@H](C(C)C)NC(=O)[C@H](C)OC(=O)[C@@H](C(C)C)NC(=O)[C@@H](C(C)C)OC1=O [Compound 6, Valinomycin]",Inhibition of biofilm formation,[2],inhibited biofilm formation only
same,Inhibition of hyphal growth,"C. albicans; C. albicans, ref Watanabe, Azuma, Igarashi & Ooshima, 2005",inhibit hyphal growth
same,CC50,in vitro,2.87 µM
"CC(NCCN(C)C)C1CCC2C3CCc4cc(O)ccc4C3CCC12C (stereo not drawn) [Compound 8, 17-[1-[2-(dimethylamino)ethylamino]ethyl]-13-methyl-6,7,8,9,11,12,14,15, 16,17-decahydrocyclopenta[a]phenanthren-3-ol]",IC50,[2]; Candida albicans,0.0097 µM
same,CC50 at 24 h,in vitro,8.08 µM
"CC1OC(CC(=O)O)Cc2c(O)c3c(c(O)c21)C(=O)C=C(C1=CC(=O)c2c(O)c4c(c(O)c2C1=O)CC(CC(=O)O)OC4C)C3=O (stereo not drawn) [Compound 13, 2-[7-[3-(carboxymethyl)-5,10-dihydroxy-1-methyl-6,9-dioxo-3,4-dihydro-1H-benzo[g]isochromen-7-yl]-5,10-dihydroxy-1-methyl-6,9-dioxo-3,4-dihydro-1H-benzo[g]isochromen-3-yl]acetic acid]",IC50,[2]; Candida albicans,3.31 µM
"CCN(CC)CCN1c2ccccc2Sc2ccc3ccccc3c21 [Compound 14, 2-benzo[a]phenothiazin-12-yl-N,N-diethylethanamine]",IC50,[2]; Candida albicans,3.8 µM
"CCCCCCCCC(C)C(=O)N1CCC[C@H]1C(=O)N[C@@H](C[C@H](C)CC(O)CC(=O)CC)C(=O)N[C@@H](C)C(=O)NC(C)(C)C(=O)NC(C)(C)C(=O)N[C@H](C(=O)N[C@@H](C)C(=O)NC(C)(C)C(=O)NC(C)(C)C(=O)N[C@@H](C)CN(C)CCO)C(C)C (stereo partly drawn) [Compound 19, Trichopolyn-B] (X1-P[X2]A[Aib][Aib]VA[Aib][Aib]-{Alaψ(CH2NMeCH2CH2OH)}; N-terminus and C-terminus assumed)",IC50,[2],0.666 µM
same,CC50,in vitro,2.99 µM
"CCCCCCCCCCCCCCC[C@@H](O)C[N+](C)(C)CCO [Compound 21, 2-hydroxyethyl-[(2R)-2-hydroxyheptadecyl]-dimethylazanium;iodide]",CC50,[3],10 µM
"N#Cc1cn([C@@H]2O[C@H](CO)[C@@H](O)[C@H]2O)c2ncnc(N)c12 [Compound 23, Vengicide (Unamycin B, Toyocamycin)]",IC50,[2]; Candida albicans,1.04 µM
same,CC50,in vitro,< 1.56 µM
"COc1cc2cc(C(=O)N3CC(COS(C)(=O)=O)c4ccc(O)cc43)[nH]c2c(OC)c1OC (stereo not drawn) [Compound 27, 6-Hydroxy-3-((methanesulfonyloxy) Methyl)-1-((5,6,7-trimethoxyindol-2-yl)carbonyl)indoline]",IC50,[2]; Candida albicans,0.495 µM
same,CC50,in vitro,< 1.56 µM
"CCCCCCCCCCCCCCC(O)C[N+](C)(CCO)CCO (stereo not drawn) [Compound 29, Hexadecanaminium, 2-hydroxy-N,N-bis(2-hydroxyethyl)-N-methyl-, chloride]",CC50,[3],13.9 µM
Nanaomycin [Compound 3],Inhibition of filamentation,[1],inhibited filamentation in a dose-response manner
